Reference: paper PMC9265729, “A Genetic Toxicology Study of the Rapid Detection of Nitrosamine Compounds by the rpsL Gene Mutation Assay” (Foods, 2022)
Values joined by “and” are separate entries in the source; they are usually repeats but may differ in a detail not shown here. Equal entries are not always repeated.

What was measured:
rpsL gene [1] = experiment: rpsL gene mutation rate at the cellular level (E. coli MF101 + pMOL21 cultured with mutagen, Amp/Str plate selection); conditions: for Mutation Rate of rpsL (mean ± SD): E. coli MF101 + pMOL21, mean of 4 experiments; for Mutation Rate of rpsL (single experiment): E. coli MF101 + pMOL21, single replicate; for genotoxicity / mutagenicity in words: NDEA, NDPA at 10 ppm, EB at lower concentrations
Procedure: The mutagenicity detection of nitrosamine compounds was carried out using the rpsL gene on plasmid pMOL21 as a selectable marker. The ribosomal protein S12 encoded by the rpsL gene can form a complex with streptomycin and enhance the ability of streptomycin to bind to 16 S rRNA, thereby preventing the initiation of […]. When the rpsL gene is mutated, the interaction between 16 S rRNA and streptomycin is disrupted, resulting in cell resistance to streptomycin.
We adopted Escherichia coli MF101, whose rpsL gene is mutated, so this strain has streptomycin resistance. The plasmid pMOL21 contains ampicillin as a selection marker and the correct rpsL gene. […] For specific information on strains and plasmids, please refer to [14].
E. coli MF101 + pMOL21 were cultured with different concentrations (10 ppm, 100 ppm, or 1000 ppm) of NDEA or NDPA. Ten hours after growth, the strains were collected and spread on plates containing ampicillin (Amp^+, 50 μg/mL) to determine the total number of transformed cells and spread on plates containing ampicillin and streptomycin (Amp^+, Str^+, 50 μg/mL) to determine the number of colonies with rpsL gene mutations. The mutation rate is the ratio of the number of mutant colonies to the total number of colonies. […] The experimental data and images were statistically analyzed by Origin2018 software.

rpsL gene [2] = experiment: rpsL gene mutation rate in the PCR amplification system (Pfu DNA polymerase, mutagen added directly to the PCR system); type: biochemical, Escherichia coli; conditions: for Mutation Rate of rpsL in PCR (mean ± SD): mean of 4 experiments; for Mutation Rate of rpsL in PCR (single experiment): single replicate
Procedure: The PCR system was as follows: 10 × PCR buffer (Mg^2+) 5 μL, dNTP 2 μL, pMOL21 plasmid template 1 μL, upstream and downstream primers 1 μL, Pfu DNA polymerase 0.5 μL, ddH2O supplemented to […] (nitrosamine compounds were directly added to the PCR system).
The PCR program was as follows: predenaturation at 95 °C for 5 min, denaturation at 94 °C for 30 s, annealing at 55 °C for 30 s, extension at 72 °C for 120 s, 25 cycles, full extension at 72 °C for 10 min, and storage at 16 °C.
The PCR products were recovered and ligated with restriction enzymes (MscI, BamH1), transformed into MF101 strains, plated on ampicillin-containing plates to determine the total number of transformed cells, and plated on ampicillin- and streptomycin-containing plates to identify rpsL gene-mutated colonies.
We measured the mutation rate of mutagen-induced rpsL gene mutations in the PCR system. The mutagen was added directly to the PCR system to determine the mutation rate of the rpsL gene during DNA amplification.

rpsL gene [3] = experiment: rpsL gene mutation rate in the RCA reaction system (phi29 DNA polymerase, mutagen added to the amplification reaction); type: biochemical, Escherichia coli; conditions: for Mutation Rate of rpsL in the RCA reaction (mean ± SD): mean of 4 experiments; for Mutation Rate of rpsL in the RCA reaction (single experiment): single replicate
Procedure: Heat denaturation of samples and annealing reaction system of primers and plasmids: 1 μL of 10 × phi29 DNA polymerase reaction buffer, 2.5 μL of 100 μM random primers, 1 μL of plasmid pMOL21 to be amplified, and 4.3 μL of ddH2O. The above system was heated at 95 °C for 3 min and then placed on ice for 15 min.
Amplification reaction system: 10 mM dNTP 0.5 μL, 100 × BSA 0.2 μL, phi29 DNA polymerase 0.5 μL to the above reaction solution (nitrosamine compounds or EB are added to the amplification reaction system), and then incubated at 30 °C overnight.
Heat-inactivated phi29 DNA polymerase: heat at 65 °C for 10 min.
We then determined the mutation rate of mutagen-induced rpsL gene mutations in the RCA system. In this experiment, we adopted the method of directly adding a mutagen to the RCA amplification reaction solution to provide a direct mutagenic environment for the amplification of the rpsL gene. This method avoids the possibility of affecting the mutagenicity of NDEA, NDPA, or EB during thermal denaturation.

[4] = 100 ppm mutagen in RCA reaction
[5] = 1000 ppm mutagen in RCA reaction

For `CC[n+]1c(-c2ccccc2)c2cc(N)ccc2c2ccc(N)cc21` [EB, ethidium bromide, reference compound], the “Mutation Rate of rpsL (mean ± SD)” value (rpsL gene [1]; 10 ppm mutagen) was 3.71 10^−6 and 3.71 ± 0.502 10^−6, the “Mutation Rate of rpsL (single experiment)” value (rpsL gene [1]; 10 ppm mutagen) was 3.65 10^−6 and 4.38 10^−6 and 3.64 10^−6 and 3.16 10^−6 and the “Mutation Rate of rpsL (mean ± SD)” value (rpsL gene [1]; 100 ppm mutagen) was 5.78 10^−6 and 5.78 ± 0.728 10^−6. The “Mutation Rate of rpsL (single experiment)” value (rpsL gene [1]; 100 ppm mutagen) was 6.50 10^−6 and 6.05 10^−6 and 4.78 10^−6 and 5.79 10^−6, the “Mutation Rate of rpsL (mean ± SD)” value (rpsL gene [1]; 1000 ppm mutagen) was 7.87 10^−6 and 7.87 ± 1.842 10^−6 and the “Mutation Rate of rpsL (single experiment)” value (rpsL gene [1]; 1000 ppm mutagen) was 9.82 10^−6 and 6.71 10^−6 and 5.94 10^−6 and 9.01 10^−6. The “genotoxicity / mutagenicity in words” value (rpsL gene [1]) was “strong mutagenicity”, the “Mutation Rate of rpsL in PCR (mean ± SD)” value (rpsL gene [2]; 10 ppm mutagen in PCR system) was 4.06 10^−6 and 4.06 ± 0.471 10^−6 and the “Mutation Rate of rpsL in PCR (single experiment)” value (rpsL gene [2]; 10 ppm mutagen in PCR system) was 4.23 10^−6 and 4.47 10^−6 and 4.15 10^−6 and 3.38 10^−6. For the same molecule, the “Mutation Rate of rpsL in PCR (mean ± SD)” value (rpsL gene [2]; 100 ppm mutagen in PCR system) was 6.01 10^−6 and 6.01 ± 1.319 10^−6, the “Mutation Rate of rpsL in PCR (single experiment)” value (rpsL gene [2]; 100 ppm mutagen in PCR system) was 5.99 10^−6 and 7.69 10^−6 and 4.47 10^−6 and 5.88 10^−6 and the “Mutation Rate of rpsL in PCR (mean ± SD)” value (rpsL gene [2]; 1000 ppm mutagen in PCR system) was 10.35 10^−6 and 10.35 ± 1.143 10^−6. For the same molecule, the “Mutation Rate of rpsL in PCR (single experiment)” value (rpsL gene [2]; 1000 ppm mutagen in PCR system) was 11.98 10^−6 and 9.32 10^−6 and 10.15 10^−6 and 9.94 10^−6, the “Mutation Rate of rpsL in the RCA reaction (mean ± SD)” value (rpsL gene [3]; 10 ppm mutagen in RCA reaction) was 3.81 10^−6 and 3.81 ± 0.335 10^−6 and the “Mutation Rate of rpsL in the RCA reaction (single experiment)” value (rpsL gene [3]; 10 ppm mutagen in RCA reaction) was 3.62 10^−6 and 4.31 10^−6 and 3.69 10^−6. For the same molecule, the “Mutation Rate of rpsL in the RCA reaction (mean ± SD)” value (rpsL gene [3]; [4]) was 6.38 10^−6 and 6.38 ± 0.915 10^−6, the “Mutation Rate of rpsL in the RCA reaction (single experiment)” value (rpsL gene [3]; [4]) was 7.26 10^−6 and 6.66 10^−6 and 5.10 10^−6 and 6.49 10^−6 and the “Mutation Rate of rpsL in the RCA reaction (mean ± SD)” value (rpsL gene [3]; [5]) was 7.35 10^−6 and 7.35 ± 2.615 10^−6. The “Mutation Rate of rpsL in the RCA reaction (single experiment)” value (rpsL gene [3]; [5]) was 6.86 10^−6 and 4.07 10^−6 and 10.34 10^−6 and 8.11 10^−6.

`CCN(CC)N=O` [NDEA, N-diethylnitrosamine] was tested, and the “Mutation Rate of rpsL (mean ± SD)” value (rpsL gene [1]; 10 ppm mutagen) was 2.42 10^−6 and 2.42 ± 0.717 10^−6, the “Mutation Rate of rpsL (single experiment)” value (rpsL gene [1]; 10 ppm mutagen) was 1.44 10^−6 and 2.34 10^−6 and 2.95 10^−6 and 2.96 10^−6 and the “Mutation Rate of rpsL (mean ± SD)” value (rpsL gene [1]; 100 ppm mutagen) was 3.76 10^−6 and 3.76 ± 0.852 10^−6. For the same molecule, the “Mutation Rate of rpsL (single experiment)” value (rpsL gene [1]; 100 ppm mutagen) was 3.32 10^−6 and 2.81 10^−6 and 4.23 10^−6 and 4.69 10^−6, the “Mutation Rate of rpsL (mean ± SD)” value (rpsL gene [1]; 1000 ppm mutagen) was 4.82 10^−6 and 4.82 ± 1.738 10^−6 and the “Mutation Rate of rpsL (single experiment)” value (rpsL gene [1]; 1000 ppm mutagen) was 2.89 10^−6 and 3.85 10^−6 and 6.02 10^−6 and 6.54 10^−6. For the same molecule, the “genotoxicity / mutagenicity in words” value (rpsL gene [1]) was “high genotoxicity”, the “Mutation Rate of rpsL in PCR (mean ± SD)” value (rpsL gene [2]; 10 ppm mutagen in PCR system) was 2.83 10^−6 and 2.83 ± 1.197 10^−6 and the “Mutation Rate of rpsL in PCR (single experiment)” value (rpsL gene [2]; 10 ppm mutagen in PCR system) was 1.28 10^−6 and 2.65 10^−6 and 4.11 10^−6 and 3.30 10^−6. The “Mutation Rate of rpsL in PCR (mean ± SD)” value (rpsL gene [2]; 100 ppm mutagen in PCR system) was 4.51 10^−6 and 4.51 ± 1.314 10^−6, the “Mutation Rate of rpsL in PCR (single experiment)” value (rpsL gene [2]; 100 ppm mutagen in PCR system) was 3.70 10^−6 and 3.09 10^−6 and 5.47 10^−6 and 5.77 10^−6 and the “Mutation Rate of rpsL in PCR (mean ± SD)” value (rpsL gene [2]; 1000 ppm mutagen in PCR system) was 5.02 10^−6 and 5.02 ± 1.890 10^−6. The “Mutation Rate of rpsL in PCR (single experiment)” value (rpsL gene [2]; 1000 ppm mutagen in PCR system) was 3.16 10^−6 and 3.68 10^−6 and 6.23 10^−6 and 7.03 10^−6, the “Mutation Rate of rpsL in the RCA reaction (mean ± SD)” value (rpsL gene [3]; 10 ppm mutagen in RCA reaction) was 2.49 10^−6 and 2.49 ± 0.692 10^−6 and the “Mutation Rate of rpsL in the RCA reaction (single experiment)” value (rpsL gene [3]; 10 ppm mutagen in RCA reaction) was 1.79 10^−6 and 2.02 10^−6 and 3.20 10^−6 and 2.96 10^−6. The “Mutation Rate of rpsL in the RCA reaction (mean ± SD)” value (rpsL gene [3]; [4]) was 3.62 10^−6 and 3.62 ± 0.316 10^−6, the “Mutation Rate of rpsL in the RCA reaction (single experiment)” value (rpsL gene [3]; [4]) was 3.47 10^−6 and 3.38 10^−6 and 3.55 10^−6 and 4.08 10^−6 and the “Mutation Rate of rpsL in the RCA reaction (mean ± SD)” value (rpsL gene [3]; [5]) was 5.54 10^−6 and 5.54 ± 2.444 10^−6. The “Mutation Rate of rpsL in the RCA reaction (single experiment)” value (rpsL gene [3]; [5]) was 3.14 10^−6 and 3.96 10^−6 and 6.59 10^−6 and 8.46 10^−6.

For `CCCN(CCC)N=O` [NDPA, N-dipropylnitrosamine], the “Mutation Rate of rpsL (mean ± SD)” value (rpsL gene [1]; 10 ppm mutagen) was 2.67 10^−6 and 2.67 ± 0.909 10^−6, the “Mutation Rate of rpsL (single experiment)” value (rpsL gene [1]; 10 ppm mutagen) was 2.34 10^−6 and 1.70 10^−6 and 2.80 10^−6 and 3.86 10^−6 and the “Mutation Rate of rpsL (mean ± SD)” value (rpsL gene [1]; 100 ppm mutagen) was 4.75 10^−6 and 4.75 ± 1.417 10^−6. For the same molecule, the “Mutation Rate of rpsL (single experiment)” value (rpsL gene [1]; 100 ppm mutagen) was 5.72 10^−6 and 2.66 10^−6 and 5.09 10^−6 and 5.53 10^−6, the “Mutation Rate of rpsL (mean ± SD)” value (rpsL gene [1]; 1000 ppm mutagen) was 5.14 10^−6 and 5.14 ± 1.433 10^−6 and the “Mutation Rate of rpsL (single experiment)” value (rpsL gene [1]; 1000 ppm mutagen) was 7.05 10^−6 and 4.20 10^−6 and 5.41 10^−6 and 3.89 10^−6. The “genotoxicity / mutagenicity in words” value (rpsL gene [1]) was “high genotoxicity”, the “Mutation Rate of rpsL in PCR (mean ± SD)” value (rpsL gene [2]; 10 ppm mutagen in PCR system) was 2.93 10^−6 and 2.93 ± 1.430 10^−6 and the “Mutation Rate of rpsL in PCR (single experiment)” value (rpsL gene [2]; 10 ppm mutagen in PCR system) was 1.83 10^−6 and 1.92 10^−6 and 3.05 10^−6 and 4.91 10^−6. The “Mutation Rate of rpsL in PCR (mean ± SD)” value (rpsL gene [2]; 100 ppm mutagen in PCR system) was 4.98 10^−6 and 4.98 ± 1.330 10^−6, the “Mutation Rate of rpsL in PCR (single experiment)” value (rpsL gene [2]; 100 ppm mutagen in PCR system) was 6.16 10^−6 and 3.08 10^−6 and 5.45 10^−6 and 5.21 10^−6 and the “Mutation Rate of rpsL in PCR (mean ± SD)” value (rpsL gene [2]; 1000 ppm mutagen in PCR system) was 6.85 10^−6 and 6.85 ± 1.316 10^−6. For the same molecule, the “Mutation Rate of rpsL in PCR (single experiment)” value (rpsL gene [2]; 1000 ppm mutagen in PCR system) was 7.72 10^−6 and 8.12 10^−6 and 6.32 10^−6 and 5.25 10^−6, the “Mutation Rate of rpsL in the RCA reaction (mean ± SD)” value (rpsL gene [3]; 10 ppm mutagen in RCA reaction) was 2.98 10^−6 and 2.98 ± 0.585 10^−6 and the “Mutation Rate of rpsL in the RCA reaction (single experiment)” value (rpsL gene [3]; 10 ppm mutagen in RCA reaction) was 2.18 10^−6 and 3.59 10^−6 and 3.05 10^−6 and 3.10 10^−6. The “Mutation Rate of rpsL in the RCA reaction (mean ± SD)” value (rpsL gene [3]; [4]) was 5.59 10^−6 and 5.59 ± 2.287 10^−6, the “Mutation Rate of rpsL in the RCA reaction (single experiment)” value (rpsL gene [3]; [4]) was 4.90 10^−6 and 3.85 10^−6 and 8.96 10^−6 and 4.67 10^−6 and the “Mutation Rate of rpsL in the RCA reaction (mean ± SD)” value (rpsL gene [3]; [5]) was 6.2 10^−6 and 6.20 ± 1.110 10^−6. For the same molecule, the “Mutation Rate of rpsL in the RCA reaction (single experiment)” value (rpsL gene [3]; [5]) was 7.78 10^−6 and 5.18 10^−6 and 5.96 10^−6 and 5.87 10^−6.
